Experimental data from patent US10285989B2, “Pyrimidinone amide compounds as PDE2 inhibitors” (Merck Sharp & Dohme Corp., priority 2015, dated 2019).
Like-named read-outs stand apart in the source and are kept apart here.

What was measured:
[1] = target: P-glycoprotein (P-gp, rat Mdr1a) (Rattus norvegicus, UniProt Q6PSM0); assay: P-gp transport, experimental BA/AB ratio, rat LLC-Mdr1a; format: in vitro ADME; settings: LLC-PK1; rat LLC-Mdrla; 1 μM substrate concentration
Text: (§1) See Doan et al. “Passive permeability and P-glycoprotein-mediated efflux differentiate central nervous system (CNS) and non-CNS marketed drugs”, J. Pharm. Exper. […] Desirable human BA/AB ratio is less than 2.0. […] See, for example, Desai, et al. Integration of in Silico and in Vitro Tools for Scaffold Optimization during Drug Discovery: Predicting P-glycoprotein Efflux” Mol. Pharmac.

[2] = target: Rhesus PDE2A3 (Macaca mulatta, UniProt B3VTJ2); assay: PDE2 fluorescence polarization (IMAP FP) inhibition assay, rhesus PDE2A3; format: biochemical, rhesus macaque
Sequence of Rhesus PDE2A3 (B3VTJ2 1-941): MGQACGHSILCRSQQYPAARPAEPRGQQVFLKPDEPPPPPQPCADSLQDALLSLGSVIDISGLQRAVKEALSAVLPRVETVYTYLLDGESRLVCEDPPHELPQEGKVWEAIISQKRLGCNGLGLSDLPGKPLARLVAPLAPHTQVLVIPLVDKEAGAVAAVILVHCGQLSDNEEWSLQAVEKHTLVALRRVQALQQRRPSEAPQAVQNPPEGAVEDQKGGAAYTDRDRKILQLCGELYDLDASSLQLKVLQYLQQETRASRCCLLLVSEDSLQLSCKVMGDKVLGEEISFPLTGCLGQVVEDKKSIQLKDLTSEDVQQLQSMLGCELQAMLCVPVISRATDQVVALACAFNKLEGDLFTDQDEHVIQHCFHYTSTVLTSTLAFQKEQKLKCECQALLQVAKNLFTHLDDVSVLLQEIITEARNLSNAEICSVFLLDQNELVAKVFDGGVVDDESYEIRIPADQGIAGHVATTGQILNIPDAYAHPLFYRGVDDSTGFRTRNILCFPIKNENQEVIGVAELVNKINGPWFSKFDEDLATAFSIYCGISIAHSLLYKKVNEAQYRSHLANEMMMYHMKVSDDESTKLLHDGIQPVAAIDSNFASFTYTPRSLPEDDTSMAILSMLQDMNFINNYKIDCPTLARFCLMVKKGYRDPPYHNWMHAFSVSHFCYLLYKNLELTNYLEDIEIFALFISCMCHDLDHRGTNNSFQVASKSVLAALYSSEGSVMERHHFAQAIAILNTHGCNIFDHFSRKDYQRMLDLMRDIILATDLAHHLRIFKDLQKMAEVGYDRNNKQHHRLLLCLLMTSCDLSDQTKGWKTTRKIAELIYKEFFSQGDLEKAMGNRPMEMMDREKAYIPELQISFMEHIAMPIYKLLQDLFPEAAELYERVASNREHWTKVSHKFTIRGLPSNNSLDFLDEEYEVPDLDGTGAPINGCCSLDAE

[3] = target: human PDE2A1 (Homo sapiens (Human), UniProt O00408); assay: PDE2 IMAP FP inhibition assay, human PDE2A1 (selectivity panel format); format: biochemical
Sequence of human PDE2A1 (O00408 other isoform, or with tags, fused parts or gaps): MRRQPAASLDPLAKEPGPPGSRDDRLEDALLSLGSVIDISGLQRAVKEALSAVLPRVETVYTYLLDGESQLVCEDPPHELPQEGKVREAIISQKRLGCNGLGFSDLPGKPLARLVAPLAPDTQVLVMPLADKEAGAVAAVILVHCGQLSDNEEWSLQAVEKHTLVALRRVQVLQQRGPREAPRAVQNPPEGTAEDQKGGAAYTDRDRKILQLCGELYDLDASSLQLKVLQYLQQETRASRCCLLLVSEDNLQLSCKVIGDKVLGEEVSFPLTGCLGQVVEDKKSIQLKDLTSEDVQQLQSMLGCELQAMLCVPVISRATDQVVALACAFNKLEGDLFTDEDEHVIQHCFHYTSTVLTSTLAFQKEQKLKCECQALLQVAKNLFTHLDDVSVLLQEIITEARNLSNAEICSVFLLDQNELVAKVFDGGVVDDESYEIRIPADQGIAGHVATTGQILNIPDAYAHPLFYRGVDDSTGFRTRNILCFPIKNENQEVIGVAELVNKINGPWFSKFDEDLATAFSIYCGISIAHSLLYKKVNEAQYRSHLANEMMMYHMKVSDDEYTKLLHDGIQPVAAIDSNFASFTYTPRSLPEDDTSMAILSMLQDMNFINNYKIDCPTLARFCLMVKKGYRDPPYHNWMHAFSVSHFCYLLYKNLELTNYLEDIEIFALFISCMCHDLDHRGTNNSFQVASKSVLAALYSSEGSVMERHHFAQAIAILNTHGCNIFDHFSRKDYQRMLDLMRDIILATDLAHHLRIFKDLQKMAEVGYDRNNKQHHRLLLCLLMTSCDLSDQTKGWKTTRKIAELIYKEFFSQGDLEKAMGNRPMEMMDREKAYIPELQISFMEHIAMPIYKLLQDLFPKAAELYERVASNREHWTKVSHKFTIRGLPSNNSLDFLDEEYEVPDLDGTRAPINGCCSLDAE
How it was run: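 IMAP fluorescence polarization assay; substrate 50 nM FAM-cAMP with 1000 nM cGMP, enzyme at ~20% conversion, in 10 mM Tris pH 7.2, 10 mM MgCl2, 1 mM DTT, 0.01% Tween-20. 60 min room temperature, stopped with IMAP binding reagent, 1 h, then parallel/perpendicular fluorescence read.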

[4] = target: P-glycoprotein (P-gp) (Homo sapiens (Human), UniProt P08183); assay: P-gp transport, experimental BA/AB ratio, human; format: in vitro ADME; settings: LLC-PK1, 1 μM substrate concentration
Sequence of P-glycoprotein (P-gp) (P08183 whole entry): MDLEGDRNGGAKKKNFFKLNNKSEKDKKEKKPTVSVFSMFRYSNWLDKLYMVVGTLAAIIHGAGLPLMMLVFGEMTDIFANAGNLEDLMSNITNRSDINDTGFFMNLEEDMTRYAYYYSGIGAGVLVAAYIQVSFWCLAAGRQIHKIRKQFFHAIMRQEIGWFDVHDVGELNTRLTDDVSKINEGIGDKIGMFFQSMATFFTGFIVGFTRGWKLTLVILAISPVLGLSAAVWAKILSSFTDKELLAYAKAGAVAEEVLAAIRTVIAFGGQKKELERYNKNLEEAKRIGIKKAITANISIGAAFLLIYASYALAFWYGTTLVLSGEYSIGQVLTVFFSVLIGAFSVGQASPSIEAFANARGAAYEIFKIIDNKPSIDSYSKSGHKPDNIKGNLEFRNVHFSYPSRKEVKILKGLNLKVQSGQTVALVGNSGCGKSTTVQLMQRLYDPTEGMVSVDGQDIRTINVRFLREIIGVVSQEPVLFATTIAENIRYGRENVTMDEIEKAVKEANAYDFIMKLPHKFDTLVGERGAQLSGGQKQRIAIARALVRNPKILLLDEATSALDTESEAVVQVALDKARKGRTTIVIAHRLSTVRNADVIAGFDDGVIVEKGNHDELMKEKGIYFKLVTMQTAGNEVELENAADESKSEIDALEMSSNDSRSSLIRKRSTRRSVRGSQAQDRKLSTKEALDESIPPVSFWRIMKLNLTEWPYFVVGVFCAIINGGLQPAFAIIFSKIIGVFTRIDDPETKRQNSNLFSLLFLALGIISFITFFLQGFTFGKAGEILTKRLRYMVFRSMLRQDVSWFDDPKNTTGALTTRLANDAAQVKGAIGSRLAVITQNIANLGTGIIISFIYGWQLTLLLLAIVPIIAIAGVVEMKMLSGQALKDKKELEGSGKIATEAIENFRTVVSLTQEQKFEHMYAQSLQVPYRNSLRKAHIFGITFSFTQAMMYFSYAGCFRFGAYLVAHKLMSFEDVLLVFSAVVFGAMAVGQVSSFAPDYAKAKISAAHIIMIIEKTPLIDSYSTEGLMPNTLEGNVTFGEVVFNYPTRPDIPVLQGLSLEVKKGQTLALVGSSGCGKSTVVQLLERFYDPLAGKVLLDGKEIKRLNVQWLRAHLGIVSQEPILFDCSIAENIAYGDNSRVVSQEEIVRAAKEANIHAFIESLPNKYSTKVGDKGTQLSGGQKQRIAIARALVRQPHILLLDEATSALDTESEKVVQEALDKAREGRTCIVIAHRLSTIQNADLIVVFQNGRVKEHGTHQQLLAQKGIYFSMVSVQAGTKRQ
Text: as §1

[5] = Lab A, read-out: Rhesus PDE2 Ki (nM) - Lab A
[6] = Lab B, read-out: Rhesus PDE2 Ki (nM) - Lab B
[7] = Lab B, read-out: Human PDE2 Ki (nM) - Lab B
[8] = Lab A, read-out: Human PDE2 Ki (nM) - Lab A

Sequence of P-glycoprotein (P-gp, rat Mdr1a) (Q6PSM0 1-1272): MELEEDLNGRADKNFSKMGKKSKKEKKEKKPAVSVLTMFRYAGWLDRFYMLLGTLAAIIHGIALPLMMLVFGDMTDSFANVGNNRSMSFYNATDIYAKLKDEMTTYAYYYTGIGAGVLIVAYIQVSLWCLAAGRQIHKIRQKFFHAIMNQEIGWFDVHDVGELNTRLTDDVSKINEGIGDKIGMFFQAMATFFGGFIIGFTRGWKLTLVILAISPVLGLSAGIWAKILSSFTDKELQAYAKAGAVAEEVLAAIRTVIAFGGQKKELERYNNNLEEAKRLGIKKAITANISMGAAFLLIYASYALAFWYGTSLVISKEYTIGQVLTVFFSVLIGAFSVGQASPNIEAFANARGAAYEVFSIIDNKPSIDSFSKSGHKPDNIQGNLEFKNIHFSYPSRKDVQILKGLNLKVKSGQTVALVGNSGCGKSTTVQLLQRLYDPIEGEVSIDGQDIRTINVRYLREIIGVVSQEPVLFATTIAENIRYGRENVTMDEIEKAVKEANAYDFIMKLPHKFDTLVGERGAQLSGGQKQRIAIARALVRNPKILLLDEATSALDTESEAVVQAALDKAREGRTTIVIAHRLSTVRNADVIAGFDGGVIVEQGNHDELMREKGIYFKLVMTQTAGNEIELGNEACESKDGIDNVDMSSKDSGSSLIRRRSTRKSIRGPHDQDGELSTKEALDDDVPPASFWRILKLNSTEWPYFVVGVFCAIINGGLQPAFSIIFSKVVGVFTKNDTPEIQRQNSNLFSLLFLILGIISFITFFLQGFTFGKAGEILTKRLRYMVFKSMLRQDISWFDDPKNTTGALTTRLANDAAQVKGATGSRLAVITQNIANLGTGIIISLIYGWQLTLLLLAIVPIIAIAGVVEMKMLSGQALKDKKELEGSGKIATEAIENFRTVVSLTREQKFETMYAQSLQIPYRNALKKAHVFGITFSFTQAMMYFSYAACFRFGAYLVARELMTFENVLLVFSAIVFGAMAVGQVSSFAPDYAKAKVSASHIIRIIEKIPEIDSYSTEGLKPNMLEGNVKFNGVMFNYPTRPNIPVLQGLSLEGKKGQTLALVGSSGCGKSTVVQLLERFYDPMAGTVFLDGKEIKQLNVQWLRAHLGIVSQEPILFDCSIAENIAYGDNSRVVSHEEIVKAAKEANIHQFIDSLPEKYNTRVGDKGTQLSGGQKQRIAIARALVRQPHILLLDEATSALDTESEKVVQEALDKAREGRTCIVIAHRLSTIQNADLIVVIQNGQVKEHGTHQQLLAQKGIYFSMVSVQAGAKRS

| Structure (SMILES) | efflux ratio at 1 μM [1] | Ki [2, 5] | Ki [2, 6] | Ki [3, 7] | efflux ratio at 1 μM [4] | Ki [3, 8] |
| --- | --- | --- | --- | --- | --- | --- |
| CN(C)c1nc(C(=O)N[C@@H](c2ccc(C(F)(F)F)c(F)c2)C2CC2)cc(=O)[nH]1 [Example 109, N-{(1R)-cyclopropyl[3-fluoro-4-(trifluoromethyl)phenyl]methyl}-2-(dimethylamino)-6-oxo-1,6-dihydropyrimidine-4-carboxamide] | 2.5 | 0.91 nM | 1.4 nM | 1.9 nM | 0.5 | – |
| O=C(N[C@@H](c1ccc(S(F)(F)(F)(F)F)cc1)C1CC1)c1cc(=O)[nH]c(N2CCCC2)n1 [Example 99, N-{(R)-cyclopropyl[4-(pentafluoro-λ^6-sulfanyl)phenyl]methyl}-6-oxo-2-pyrrolidin-1-yl-1,6-dihydropyrimidine-4-carboxamide] | 5.8 | – | 1.1 nM | 1.1 nM | 0.7 | – |
| C[C@@H](NC(=O)c1cc(=O)[nH]c(N(C)C)n1)c1ccc(SC(F)(F)F)c(F)c1 [Example 96, 2-(dimethylamino)-N-[(1R)-1-{3-fluoro-4-[(trifluoromethyl)sulfanyl]phenyl}ethyl]-6-oxo-1,6-dihydropyrimidine-4-carboxamide] | 2.5 | 0.36 nM | – | – | 0.5 | 0.2 nM |
| CN(C)c1nc(C(=O)N[C@@H](c2ccc(OC(F)F)c(F)c2)C(C)(C)C)cc(=O)[nH]1 [Example 54, N-{(1R)-1-[4-(difluoromethoxy)-3-fluorophenyl]-2,2-dimethylpropyl}-2-(dimethylamino)-6-oxo-1,6-dihydropyrimidine-4-carboxamide] | 4.8 | – | 0.32 nM | 0.38 nM | 1.4 | – |
| CN(C)c1nc(C(=O)N[C@@H](c2ccc(C(F)(F)F)cc2F)C(C)(C)C)cc(=O)[nH]1 [Example 37, 2-(dimethylamino)-N-{(1R)-1-[2-fluoro-4-(trifluoromethyl)phenyl]-2,2-dimethylpropyl}-6-oxo-1,6-dihydropyrimidine-4-carboxamide] | 1.2 | – | 0.11 nM | 0.13 nM | 1 | – |
| CN(C)c1nc(C(=O)N[C@@H](c2ccc(SC(F)(F)F)cc2)C(C)(C)C)cc(=O)[nH]1 [Example 103, 2-(dimethylamino)-N-[(1R)-2,2-dimethyl-1-{4-[(trifluoromethyl)sulfanyl]phenyl}propyl]-6-oxo-1,6-dihydropyrimidine-4-carboxamide] | 8.2 | – | 0.12 nM | 0.12 nM | 2.2 | – |
| CC[C@@H](NC(=O)c1cc(=O)[nH]c(N(C)C)n1)c1ccc(S(F)(F)(F)(F)F)cc1 [Example 5, (R)-2-(dimethylamino)-6-oxo-N-(1-(4-(pentafluoro-λ^6-sulfanyl)phenyl)propyl)-1,6-dihydropyrimidine-4-carboxamide] | 3.6 | 0.69 nM | 1.5 nM | 1.3 nM | 0.5 | – |
| CN(C)c1nc(C(=O)NC2(c3ccc(SC(F)(F)F)cc3)CC2)cc(=O)[nH]1 [Example 92, 2-(dimethylamino)-6-oxo-N-(1-{4-[(trifluoromethyl)sulfanyl]phenyl}cyclopropyl)-1,6-dihydropyrimidine-4-carboxamide] | 1.7 | 2.5 nM | – | – | 0.4 | 1.8 nM |
| CC[C@@H](NC(=O)c1cc(=O)[nH]c(N(C)C)n1)c1ccc(SC(F)(F)F)cc1 [Example 88, 2-(dimethylamino)-6-oxo-N-[(1R)-1-{4-[(trifluoromethyl)sulfanyl]phenyl}propyl]-1,6-dihydropyrimidine-4-carboxamide] | 1.8 | 0.61 nM | 0.51 nM | 0.69 nM | 0.3 | 5.05 nM |
| O=C(N[C@@H](c1ccc(SC(F)(F)F)cc1)C1CC1)c1cc(=O)[nH]c(N2CCCC2)n1 [Example 27, N-[(R)-cyclopropyl{4-[(trifluoromethyl)sulfanyl]phenyl}methyl]-6-oxo-2-pyrrolidin-1-yl-1,6-dihydropyrimidine-4-carboxamide] | 7 | 0.58 nM | – | – | 0.8 | 0.21 nM |
| CN(C)c1nc(C(=O)N[C@@H](c2ccc(C(F)(F)F)c(F)c2)C2(C)CC2)cc(=O)[nH]1 [Example 42, 2-(dimethylamino)-N-[(R)-[3-fluoro-4-(trifluoromethyl)phenyl](1-methylcyclopropyl)methyl]-6-oxo-1,6-dihydropyrimidine-4-carboxamide] | 3 | – | 0.45 nM | 0.44 nM | 0.7 | – |
| COc1ccc(OCCCOc2nc(C(=O)NC(C)c3ccc(C(F)(F)F)cc3)cc(=O)[nH]2)cc1 (centres unmarked) [Example 194, 2-[3-(4-methoxyphenoxy)propoxy]-6-oxo-N-{1-[4-(trifluoromethyl)phenyl]ethyl}-1,6-dihydropyrimidine-4-carboxamide] | 8.4 | ~5.2 nM | – | – | 1 | 4.4 nM |
| CN(C)c1nc(C(=O)N[C@@H](c2ccc(C(F)F)c(F)c2)C(C)(C)C)cc(=O)[nH]1 [Example 62, N-{(1R)-1-[4-(difluoromethyl)-3-fluorophenyl]-2,2-dimethylpropyl}-2-(dimethylamino)-6-oxo-1,6-dihydropyrimidine-4-carboxamide] | 5.2 | – | 0.55 nM | 0.52 nM | 1.2 | – |
| C[C@@H](NC(=O)c1cc(=O)[nH]c(N2CCC(F)(F)C2)n1)c1ccc(C(F)(F)F)cc1 [Example 13, (R)-2-(3,3-difluoropyrrolidin-1-yl)-6-oxo-N-(1-(4-(trifluoromethyl)phenyl)ethyl)-16-dihydropyrimidine-4-carboxamide] | 5.9 | 13 nM | – | – | 0.6 | 9.2 nM |
| CC(C)[C@@H](NC(=O)c1cc(=O)[nH]c(N2CC[C@H](F)C2)n1)c1ccc(OC(F)(F)F)c(F)c1 [Example 162, 2-[(3S)-3-fluoropyrrolidin-1-yl]-N-{(1R)-1-[3-fluoro-4-(trifluoromethoxy)phenyl]-2-methylpropyl}-6-oxo-1,6-dihydropyrimidine-4-carboxamide] | 17.9 | 0.51 nM | – | 0.61 nM | 2.5 | – |
| CN(C)c1nc(C(=O)N[C@@H](c2ccc(OC(F)F)cc2)C(C)(C)C)cc(=O)[nH]1 [Example 34, N-{(1R)-1-[4-(difluoromethoxy)phenyl]-2,2-dimethylpropyl}-2-(dimethylamino)-6-oxo-1,6-dihydropyrimidine-4-carboxamide] | 12.7 | – | 0.46 nM | 0.39 nM | 2 | – |
| CCCOc1nc(C(=O)N[C@H](C)c2ccc(C(F)(F)F)cc2)cc(=O)[nH]1 [Example 178, 6-oxo-2-propoxy-N-{(1R)-1-[4-(trifluoromethyl)phenyl]ethyl}-1,6-dihydropyrimidine-4-carboxamide] | 1 | 58 nM | – | – | 0.4 | 52 nM |
| C[C@@H](NC(=O)c1cc(=O)[nH]c(N(C)C)n1)c1ccc(S(F)(F)(F)(F)F)cc1 [Example 89, 2-(dimethylamino)-6-oxo-N-{(1R)-1-[4-(pentafluoro-λ^6-sulfanyl)phenyl]ethyl}-1,6-dihydropyrimidine-4-carboxamide] | 2.9 | 1.1 nM | – | – | 0.4 | 0.41 nM |
| COc1cc(C(F)(F)F)ccc1C(C)(C)NC(=O)c1cc(=O)[nH]c(N(C)C)n1 [Example 79, 2-(dimethylamino)-N-{1-[2-methoxy-4-(trifluoromethyl)phenyl]-1-methylethyl}-6-oxo-1,6-dihydropyrimidine-4-carboxamide] | 6.2 | – | 6.4 nM | 7.7 nM | 0.9 | – |
| CN(C)c1nc(C(=O)N[C@@H](c2ccc(C(C)(F)F)cc2)C(C)(C)C)cc(=O)[nH]1 [Example 76, N-{(1R)-1-[4-(1,1-difluoroethyl)phenyl]-2,2-dimethylpropyl}-2-(dimethylamino)-6-oxo-1,6-dihydropyrimidine-4-carboxamide] | 4.5 | – | 0.11 nM | 0.12 nM | 1.6 | – |
| CN(C)c1nc(C(=O)N[C@@H](c2ccc(C(F)F)cc2F)C(C)(C)C)cc(=O)[nH]1 [Example 73, N-{(1R)-1-[4-(difluoromethyl)-2-fluorophenyl]-2,2-dimethylpropyl}-2-(dimethylamino)-6-oxo-1,6-dihydropyrimidine-4-carboxamide] | 6.9 | – | 0.26 nM | 0.17 nM | 1.2 | – |
| C[C@@H](NC(=O)c1cc(=O)[nH]c(N(C)C)n1)c1ccc(C2CC2)c(F)c1 [Example 40, N-[(1R)-1-(4-cyclopropyl-3-fluorophenyl)ethyl]-2-(dimethylamino)-6-oxo-1,6-dihydropyrimidine-4-carboxamide] | 2.4 | – | 0.87 nM | 1.02 nM | 0.5 | – |
